In patent US9439432B2, “Phenylisoxazoline-based compound having herbicidal activity and use thereof” (MOGHU RESEARCH CENTER LTD, priority 2011, dated 2016):

Each compound was assayed on Corn (assay: Pre-emergence treatment, phytotoxicity to corn). Conditions: 500 g/ha, 4 weeks after spraying, scale 0 to 10 (0: no effects, 10: complete death).
Type: in vivo
Method: (§1) A rectangular plastic pot having a surface area of 300 cm^2 was filled with sandy loam soil and mixed bed soil which were mixed at a ratio of 1:1, and then, barnyardrass (Echinochloa crusgalli), large crabgrass (Digitaria sanguinalis), blackgrass (Alopecurus myosuroides), and annual bluegrass (Poa annua), which are grass weeds, were seeded thereto. In a pot that was prepared as described above, seeds of corn, soybean, cotton, wheat, and rice were seeded. The pots were irrigated, and one day after, chemicals were sprayed thereto. The spraying was performed by using a track sprayer (R&D Sprayer, USA) equipped with a Teejet 8002 (Spraying Systems Co., USA) nozzle, and a spraying amount was adjusted at 300 L/ha. A spraying solution was prepared by dissolving test materials or references in acetone and adding the same amount of 0.2%(v/v) tween 20 aqueous solution thereto. Application rates were 500, 250, 125, and 62.5 g/ha. The pots were placed in a greenhouse in which during day, the temperature was maintained at a temperature of 25 to 30° C., and during night, the temperature was maintained at a temperature of 15 to 25° C., and the pots were periodically irrigated. Four weeks after the spraying the test materials or References, effects and phytotoxicity of the respective weeds and crops were evaluated in a scale of 0 to 10 (0: no effects, 10: complete death), and results thereof are shown in Table 4 below.

Structure (SMILES)	Phytotoxicity, Corn
CC1(COCc2c(F)cccc2F)CC(c2ccccc2F)=NO1 (stereo not shown) [Compound 4, 5-((2,6-difluorobenzyloxy)methyl)-3-(2-fluorophenyl)-5-methyl-4,5-dihydroisoxazole]	4

What follows are compounds tested on Soybean (assay: Pre-emergence treatment, phytotoxicity to soybean). Conditions: 500 g/ha, 4 weeks after spraying, scale 0 to 10 (0: no effects, 10: complete death).
Type: in vivo
Method: as §1

Structure (SMILES)	Phytotoxicity, Soybean
CC1(COCc2c(F)cccc2F)CC(c2ccccc2F)=NO1 (stereo not shown) [Compound 4, 5-((2,6-difluorobenzyloxy)methyl)-3-(2-fluorophenyl)-5-methyl-4,5-dihydroisoxazole]	0

The compounds below were run on Cotton (assay: Pre-emergence treatment, phytotoxicity to cotton). Conditions: 500 g/ha, 4 weeks after spraying, scale 0 to 10 (0: no effects, 10: complete death).
Type: in vivo
Method: as §1

Structure (SMILES)	Phytotoxicity, Cotton
CC1(COCc2c(F)cccc2F)CC(c2ccccc2F)=NO1 (stereo not shown) [Compound 4, 5-((2,6-difluorobenzyloxy)methyl)-3-(2-fluorophenyl)-5-methyl-4,5-dihydroisoxazole]	1

Each compound was assayed on Wheat (assay: Pre-emergence treatment, phytotoxicity to wheat). Conditions: 500 g/ha, 4 weeks after spraying, scale 0 to 10 (0: no effects, 10: complete death).
Type: in vivo
Method: as §1

Structure (SMILES)	Phytotoxicity, Wheat
CC1(COCc2c(F)cccc2F)CC(c2ccccc2F)=NO1 (stereo not shown) [Compound 4, 5-((2,6-difluorobenzyloxy)methyl)-3-(2-fluorophenyl)-5-methyl-4,5-dihydroisoxazole]	0

What follows are compounds tested on Rice (assay: Pre-emergence treatment, phytotoxicity to rice). Conditions: 500 g/ha, 4 weeks after spraying, scale 0 to 10 (0: no effects, 10: complete death).
Type: in vivo
Method: as §1

Structure (SMILES)	Phytotoxicity, Rice
CC1(COCc2c(F)cccc2F)CC(c2ccccc2F)=NO1 (stereo not shown) [Compound 4, 5-((2,6-difluorobenzyloxy)methyl)-3-(2-fluorophenyl)-5-methyl-4,5-dihydroisoxazole]	0

Each compound was assayed on Echinochloa crusgalli (assay: Pre-emergence treatment, herbicidal efficacy on barnyardgrass). Conditions: 62.5 g/ha, 4 weeks after spraying, scale 0 to 10.
Type: in vivo
Method: as §1

Structure (SMILES)	Herbicidal efficacy, Echinochloa crusgalli
CC1(COCc2c(F)cccc2F)CC(c2ccccc2F)=NO1 (stereo not shown) [Compound 4, 5-((2,6-difluorobenzyloxy)methyl)-3-(2-fluorophenyl)-5-methyl-4,5-dihydroisoxazole]	7

Same assay, conditions: 125 g/ha, 4 weeks after spraying, scale 0 to 10

Structure (SMILES)	Herbicidal efficacy, Echinochloa crusgalli
CC1(COCc2c(F)cccc2F)CC(c2ccccc2F)=NO1 (stereo not shown) [Compound 4, 5-((2,6-difluorobenzyloxy)methyl)-3-(2-fluorophenyl)-5-methyl-4,5-dihydroisoxazole]	10

Same assay, conditions: 250 g/ha, 4 weeks after spraying, scale 0 to 10

Structure (SMILES)	Herbicidal efficacy, Echinochloa crusgalli
CC1(COCc2c(F)cccc2F)CC(c2ccccc2F)=NO1 (stereo not shown) [Compound 4, 5-((2,6-difluorobenzyloxy)methyl)-3-(2-fluorophenyl)-5-methyl-4,5-dihydroisoxazole]	10

Same assay, conditions: 500 g/ha, 4 weeks after spraying, scale 0 to 10 (0: no effects, 10: complete death)

Structure (SMILES)	Herbicidal efficacy, Echinochloa crusgalli
CC1(COCc2c(F)cccc2F)CC(c2ccccc2F)=NO1 (stereo not shown) [Compound 4, 5-((2,6-difluorobenzyloxy)methyl)-3-(2-fluorophenyl)-5-methyl-4,5-dihydroisoxazole]	10

These compounds were tested on Digitaria sanguinalis (assay: Pre-emergence treatment, herbicidal efficacy on large crabgrass). Conditions: 62.5 g/ha, 4 weeks after spraying, scale 0 to 10.
Type: in vivo
Method: as §1

Structure (SMILES)	Herbicidal efficacy, Digitaria sanguinalis
CC1(COCc2c(F)cccc2F)CC(c2ccccc2F)=NO1 (stereo not shown) [Compound 4, 5-((2,6-difluorobenzyloxy)methyl)-3-(2-fluorophenyl)-5-methyl-4,5-dihydroisoxazole]	10

Same assay, conditions: 125 g/ha, 4 weeks after spraying, scale 0 to 10

Structure (SMILES)	Herbicidal efficacy, Digitaria sanguinalis
CC1(COCc2c(F)cccc2F)CC(c2ccccc2F)=NO1 (stereo not shown) [Compound 4, 5-((2,6-difluorobenzyloxy)methyl)-3-(2-fluorophenyl)-5-methyl-4,5-dihydroisoxazole]	10

Same assay, conditions: 250 g/ha, 4 weeks after spraying, scale 0 to 10

Structure (SMILES)	Herbicidal efficacy, Digitaria sanguinalis
CC1(COCc2c(F)cccc2F)CC(c2ccccc2F)=NO1 (stereo not shown) [Compound 4, 5-((2,6-difluorobenzyloxy)methyl)-3-(2-fluorophenyl)-5-methyl-4,5-dihydroisoxazole]	10

Same assay, conditions: 500 g/ha, 4 weeks after spraying, scale 0 to 10

Structure (SMILES)	Herbicidal efficacy, Digitaria sanguinalis
CC1(COCc2c(F)cccc2F)CC(c2ccccc2F)=NO1 (stereo not shown) [Compound 4, 5-((2,6-difluorobenzyloxy)methyl)-3-(2-fluorophenyl)-5-methyl-4,5-dihydroisoxazole]	10

What follows are compounds tested on Poa annua (assay: Pre-emergence treatment, herbicidal efficacy on annual bluegrass). Conditions: 62.5 g/ha, 4 weeks after spraying, scale 0 to 10.
Type: in vivo
Method: as §1

Structure (SMILES)	Herbicidal efficacy, Poa annua
CC1(COCc2c(F)cccc2F)CC(c2ccccc2F)=NO1 (stereo not shown) [Compound 4, 5-((2,6-difluorobenzyloxy)methyl)-3-(2-fluorophenyl)-5-methyl-4,5-dihydroisoxazole]	9

Same assay, conditions: 125 g/ha, 4 weeks after spraying, scale 0 to 10

Structure (SMILES)	Herbicidal efficacy, Poa annua
CC1(COCc2c(F)cccc2F)CC(c2ccccc2F)=NO1 (stereo not shown) [Compound 4, 5-((2,6-difluorobenzyloxy)methyl)-3-(2-fluorophenyl)-5-methyl-4,5-dihydroisoxazole]	10

Same assay, conditions: 250 g/ha, 4 weeks after spraying, scale 0 to 10

Structure (SMILES)	Herbicidal efficacy, Poa annua
CC1(COCc2c(F)cccc2F)CC(c2ccccc2F)=NO1 (stereo not shown) [Compound 4, 5-((2,6-difluorobenzyloxy)methyl)-3-(2-fluorophenyl)-5-methyl-4,5-dihydroisoxazole]	10

Same assay, conditions: 500 g/ha, 4 weeks after spraying, scale 0 to 10

Structure (SMILES)	Herbicidal efficacy, Poa annua
CC1(COCc2c(F)cccc2F)CC(c2ccccc2F)=NO1 (stereo not shown) [Compound 4, 5-((2,6-difluorobenzyloxy)methyl)-3-(2-fluorophenyl)-5-methyl-4,5-dihydroisoxazole]	10

Each compound was assayed on Alopecurus myosuroides (assay: Pre-emergence treatment, herbicidal efficacy on blackgrass). Conditions: 62.5 g/ha, 4 weeks after spraying, scale 0 to 10.
Type: in vivo
Method: as §1

Structure (SMILES)	Herbicidal efficacy, Alopecurus myosuroides
CC1(COCc2c(F)cccc2F)CC(c2ccccc2F)=NO1 (stereo not shown) [Compound 4, 5-((2,6-difluorobenzyloxy)methyl)-3-(2-fluorophenyl)-5-methyl-4,5-dihydroisoxazole]	3

Same assay, conditions: 125 g/ha, 4 weeks after spraying, scale 0 to 10

Structure (SMILES)	Herbicidal efficacy, Alopecurus myosuroides
CC1(COCc2c(F)cccc2F)CC(c2ccccc2F)=NO1 (stereo not shown) [Compound 4, 5-((2,6-difluorobenzyloxy)methyl)-3-(2-fluorophenyl)-5-methyl-4,5-dihydroisoxazole]	4

Same assay, conditions: 250 g/ha, 4 weeks after spraying, scale 0 to 10

Structure (SMILES)	Herbicidal efficacy, Alopecurus myosuroides
CC1(COCc2c(F)cccc2F)CC(c2ccccc2F)=NO1 (stereo not shown) [Compound 4, 5-((2,6-difluorobenzyloxy)methyl)-3-(2-fluorophenyl)-5-methyl-4,5-dihydroisoxazole]	8

Same assay, conditions: 500 g/ha, 4 weeks after spraying, scale 0 to 10

Structure (SMILES)	Herbicidal efficacy, Alopecurus myosuroides
CC1(COCc2c(F)cccc2F)CC(c2ccccc2F)=NO1 (stereo not shown) [Compound 4, 5-((2,6-difluorobenzyloxy)methyl)-3-(2-fluorophenyl)-5-methyl-4,5-dihydroisoxazole]	10

These compounds were tested on Corn (assay: Post-emergence treatment, phytotoxicity to corn). Conditions: post-emergence (about 3 leaf stage), 1,000 g/ha, 4 weeks after spraying, scale 0 to 10 (0: no effects, 10: complete death).
Type: in vivo
Method: as §1
Pots containing crops and weeds were prepared in the same manner as in Example 7, and then, in the second week in which crops and weeds entered into about 3 leaf stage, the test materials and the references were sprayed thereto in the same manner as described above. The rates were 1,000, 500, 250, and 125 g/ha. Four weeks after the spraying of the test materials or the references, herbicidal efficacy and phytotoxicity to the respective weeds and crops were evaluated in a scale of 0 to 10 (0: no effects, 10: complete death).

Structure (SMILES)	Phytotoxicity, Corn
CC1(COCc2c(F)cccc2F)CC(c2ccccc2F)=NO1 (stereo not shown) [Compound 4, 5-((2,6-difluorobenzyloxy)methyl)-3-(2-fluorophenyl)-5-methyl-4,5-dihydroisoxazole]	4
